The target of this assay is T1, glucosamine-6-phosphate synthase (Escherichia coli, UniProt P17169).
T1 construct: allowed mutagenesis of a 2247 base pair region that included the entire glmS gene; made in house; host or cells: E. coli W3110-derived (DE3) production strains with integrated T7-glmS cassette; crude extract
The class given is biochemical. The note with it: spectrophotometric assay, FIG. 5.

T1 sequence (P17169 2-609): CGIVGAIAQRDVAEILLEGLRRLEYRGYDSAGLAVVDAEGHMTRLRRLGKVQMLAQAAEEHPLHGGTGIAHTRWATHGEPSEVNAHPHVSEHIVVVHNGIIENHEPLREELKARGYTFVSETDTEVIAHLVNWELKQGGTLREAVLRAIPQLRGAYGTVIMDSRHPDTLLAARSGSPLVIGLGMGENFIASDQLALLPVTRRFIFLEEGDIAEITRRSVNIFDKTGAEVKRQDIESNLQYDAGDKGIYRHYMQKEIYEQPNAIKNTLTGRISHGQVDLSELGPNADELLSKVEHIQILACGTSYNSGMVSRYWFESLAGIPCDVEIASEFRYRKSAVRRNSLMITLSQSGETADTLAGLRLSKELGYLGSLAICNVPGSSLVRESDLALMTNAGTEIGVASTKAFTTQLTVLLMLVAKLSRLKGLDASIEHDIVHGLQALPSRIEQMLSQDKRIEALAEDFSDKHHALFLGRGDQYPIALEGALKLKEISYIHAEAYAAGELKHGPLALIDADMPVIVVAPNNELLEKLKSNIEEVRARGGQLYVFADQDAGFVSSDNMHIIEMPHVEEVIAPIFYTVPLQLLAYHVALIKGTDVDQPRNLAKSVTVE
Procedure: In the spectrophotometric assay, 1 mL reactions containing 50 mM KH2PO4/K2HPO4, 10 nM fructose-6-phosphate, 6 mM L-glutamine, 10 mM KCl, 0.6 mM acetylpyridine adenine dinucleotide (APAD), and 50-60 Units of L-glutamic dehydrogenase (Sigma Type II from bovine liver) were run at room temperature. The activity was followed by monitoring the absorbance at 365 nm after the addition of extract and corrected for the small absorbance increase observed in the absence of extract. The activity was calculated using a molar extinction coefficient for APAD of 9100.
Using the spectrophotometric assay for glucosamine-6-phosphate synthase as described in Example 2, the effects of glucosamine-6-phosphate and glucosamine on glucosamine-6-phosphate synthase were measured. For determination of product inhibition, assays were run in the presence of various concentrations of added glucosamine-6-phosphate.
The strains were grown overnight in LB broth containing 100 μg/mL ampicillin and 1 mM IPTC. […]
Strains 2123-12, 2123-49, 2123-54, 2123-124, 2123-149, and 2123-151, described in the examples above, were grown overnight in LB broth at 37° C. then transferred to fresh LB broth. Cultures were grown to an absorbance at 600 nm of 0.8 to 0.9, then induced for GlcN6P synthase production by the addition of 1 mM IPTG. […]

Take `N[C@H]1C(O)O[C@H](COP(=O)(O)O)[C@@H](O)[C@@H]1O` (some centres unmarked) [glucosamine-6-phosphate]: the “Inhibition of glucosamine-6-phosphate synthase by the added substance” value is “significantly inhibited”.

Regarding `N[C@H]1C(O)O[C@H](CO)[C@@H](O)[C@@H]1O` (some centres unmarked) [glucosamine], the “Inhibition of glucosamine-6-phosphate synthase by the added substance” value is “slightly inhibited”.

The values are drawn from patent US6372457B1, “Process and materials for production of glucosamine” (Arkion Life Sciences LLC, priority 1997, dated 2002).
